Where two headings read alike, the source gives them in different places. Bridges are numbered along the chain shown (N, C = ends). Where no end group is shown, it is not given here.
Tests used:
HaCaT keratinocytes = assay: Wound-healing (scratch) assay, collective migration of HaCaT keratinocytes; type: cell-based, human; conditions: 10 µM peptide, 24 h, serum-free; % of untreated control; n = 14 (Figure 4a,b)
Protocol: Human HaCaT keratinocytes (ATCC, Manassas, VA, USA) were grown (37 °C, 8% CO2) in a DME medium with phenol red (PanEco, Moscow, Russia), 10% fetal calf serum (Thermo Fisher Scientific, Waltham, […], USA), and 2 mM L-glutamine (PanEco). Human peripheral blood monocytes were isolated from human donors’ blood (informed written consent was obtained from the donors) with Lymphosep media (MP Biomedicals, Irvine, CA, USA) and cultivated in RPMI-1640 medium with phenol red (PanEco, Russia), 10% fetal calf serum (Thermo Fisher Scientific), and 2 mM L-glutamine (PanEco). All cells were routinely tested for the absence of mycoplasma contamination (Mycoreport kit, Evrogen, Moscow, Russia).
The in vitro wound healing (scratch) assay was performed as described in [35]. In brief, HaCaT cells were seeded in 96-well cell culture plates (5 × 10^4 cells/well) and grown for 24 h. […] Pictures were analyzed after 0 and 24 h at 20× magnification at CloneSelect Imager (Molecular Devices, San Jose, CA, USA). The center of the plate was marked as a central reference point to ensure that the same area was recorded during the time course. Digital images were taken, and the scratch area was quantified using ImageJ 1.54f software (NIH, Bethesda, MD, USA) and MS Excel 365 (Microsoft, Redmond, WA, USA) software by measuring the % of the scratch surface occupied by migrating cells.

[1] = ELISA binding to immobilized membrane fraction of A. rubens arm tip; set-up: species or system Asterias rubens; conditions: detection by anti-Lystar5 serum, n = 4 (Figure 3b)
Description: Figure 2 Design of the peptides mimicking the loop and “head” regions of Lystar5 and ELISA experiments. (a) Amino acid sequence alignment of Lystar5 and the peptides: loop I (rose), loop II (orange), loop III (blue), and head (green). Cys residues are shown in gold. Disulfide bonds are shown in brackets. Sequences of the peptides are highlighted by colors corresponding to the Lystar5 loops. The amino acids changed to increase the peptides’ stability are designated by lowercase letters. (b) Spatial structure of Lystar5 predicted from the sequence using ESMFold with regions corresponding to the synthesized peptides colored as shown in panel (a,c). Design of ELISA experiments for proof of detection of Lystar5 and the peptides by the anti-Lystar5 serum of immunized mice (left), identification of the active site of Lystar5, and evaluation of the interaction of Lystar5 and the peptides using the immobilized membrane fraction of different A. rubens tissues (center), and study of complex formation between nAChR and integrin subunits in HaCAT keratinocytes (right). […] Recombinant analogue of Lynx2 was used as a negative control. […] Bound compounds were detected by the anti-Lystar5 serum of immunized mouse. […]

[2] = cited from earlier work
Description: Ly6/uPAR proteins from different organisms are currently being considered as prototypes for new drugs.

## GEDGCTAATTQLGKRYFADKSRPAWGAVECG (disulfide 5-30 (inferred)) [loop III, C-amidated peptide mimicking loop III of Lystar5: […]]
HaCaT keratinocytes
  collective migration of HaCaT keratinocytes (scratch assay), wound closure: did not affect the collective migration

## VLKTCTSRQDRCG (disulfide 5-12 (inferred)) [head, C-amidated peptide mimicking the "head" region of Lystar5: […]]
[1]
  binding to the immobilized membrane fraction of the arm tip: neither Lystar5 nor its loops or “head” bound
HaCaT keratinocytes
  collective migration of HaCaT keratinocytes (scratch assay), wound closure: did not affect the collective migration

## α-cobratoxin
[2]; snake toxin from Naja kaouthia, ref [45]
  anti-cancer activity: effective anti-cancer agents

B1: SLURP-1: human-secreted epithelial protein SLURP-1 (protein, UniProt P55000 23-103, looked up)
Secreted Ly-6/uPAR-related …: LKCYTCKEPMTSASCRTITRCKPEDTACMTTLVTVEAEYPFNQSPVVTRSCSSSCVATDPDSIGAAHLIFCCFRDLCNSEL
[2]; human-secreted epithelial protein, ref [46]
  anti-cancer activity: effective anti-cancer agents

B2: Lynx1: human protein Lynx1 found in the nervous system, skin, and lungs (protein, UniProt P0DP58 21-91, looked up)
Ly-6/neurotoxin-like protein 1: LDCHVCAYNGDNCFNPMRCPAMVAYCMTTRTYYTPTRMKVSKSCVPRCFETVYDGYSKHASTTSCCQYDLC
[2]; human protein found in the nervous system, skin, and lungs, ref [47],[48]
  anti-cancer activity: effective anti-cancer agents
[2]; ref [49]
  cognitive dysfunctions related to the cholinergic system decline: ameliorates cognitive dysfunctions
